Assay results reported in patent publication US8198285B2, “Pyrazine derivatives” (Astrazeneca AB, priority 2010, dated 2012).
Structures can show the parent of a compound that is named as a salt.

Target: T1, cardiac Na+ channel, hNav1.5 (Homo sapiens, UniProt Q14524)
T1 construct: expressed in transfected cells; host or cells: Chinese hamster ovary K1 (CHO) cells
Assay: hNav1.5 IonWorks electrophysiology in CHO cells
Type: cell-based
Conditions: IonWorks Quattro, 3 Hz, room temperature
Protocol: The hNav1.5-expressing Chinese hamster ovary K1 (CHO) cells used has been described previously (Persson, F. et al, (2005), Journal of Cardiovascular Electrophysiology, 16, 329-341). These cells were grown to semi-confluence at 37° C. in a humidified environment (5% CO2) in F-12 Ham medium containing Glutamax™, 10% foetal calf serum and 1 mg/ml G418 (all Invitrogen). Prior to use, the monolayer was washed using a pre-warmed (37° C.) 3 ml aliquot of Versene 1:5000 (Invitrogen). After aspiration of this solution the flask was incubated at 37° C. with a further 3 ml of Versene 1:5000 for a period of 6 min. […] A 0.5 ml aliquot of cell suspension was removed and the number of viable cells (based on trypan blue exclusion) was determined in an automated cell counter (Cedex; Innovatis) so that the cell re-suspension volume could be adjusted with PBS to give the desired final cell concentration. […]
Pre- and post-scan hNav1.5 current amplitude was measured from the leak-subtracted traces by the IonWorks™ software by taking the average current during the end of the depolarising pulse to 0 mV (baseline current) and subtracting this from the peak inward current. […]

T1 sequence (Q14524 whole entry): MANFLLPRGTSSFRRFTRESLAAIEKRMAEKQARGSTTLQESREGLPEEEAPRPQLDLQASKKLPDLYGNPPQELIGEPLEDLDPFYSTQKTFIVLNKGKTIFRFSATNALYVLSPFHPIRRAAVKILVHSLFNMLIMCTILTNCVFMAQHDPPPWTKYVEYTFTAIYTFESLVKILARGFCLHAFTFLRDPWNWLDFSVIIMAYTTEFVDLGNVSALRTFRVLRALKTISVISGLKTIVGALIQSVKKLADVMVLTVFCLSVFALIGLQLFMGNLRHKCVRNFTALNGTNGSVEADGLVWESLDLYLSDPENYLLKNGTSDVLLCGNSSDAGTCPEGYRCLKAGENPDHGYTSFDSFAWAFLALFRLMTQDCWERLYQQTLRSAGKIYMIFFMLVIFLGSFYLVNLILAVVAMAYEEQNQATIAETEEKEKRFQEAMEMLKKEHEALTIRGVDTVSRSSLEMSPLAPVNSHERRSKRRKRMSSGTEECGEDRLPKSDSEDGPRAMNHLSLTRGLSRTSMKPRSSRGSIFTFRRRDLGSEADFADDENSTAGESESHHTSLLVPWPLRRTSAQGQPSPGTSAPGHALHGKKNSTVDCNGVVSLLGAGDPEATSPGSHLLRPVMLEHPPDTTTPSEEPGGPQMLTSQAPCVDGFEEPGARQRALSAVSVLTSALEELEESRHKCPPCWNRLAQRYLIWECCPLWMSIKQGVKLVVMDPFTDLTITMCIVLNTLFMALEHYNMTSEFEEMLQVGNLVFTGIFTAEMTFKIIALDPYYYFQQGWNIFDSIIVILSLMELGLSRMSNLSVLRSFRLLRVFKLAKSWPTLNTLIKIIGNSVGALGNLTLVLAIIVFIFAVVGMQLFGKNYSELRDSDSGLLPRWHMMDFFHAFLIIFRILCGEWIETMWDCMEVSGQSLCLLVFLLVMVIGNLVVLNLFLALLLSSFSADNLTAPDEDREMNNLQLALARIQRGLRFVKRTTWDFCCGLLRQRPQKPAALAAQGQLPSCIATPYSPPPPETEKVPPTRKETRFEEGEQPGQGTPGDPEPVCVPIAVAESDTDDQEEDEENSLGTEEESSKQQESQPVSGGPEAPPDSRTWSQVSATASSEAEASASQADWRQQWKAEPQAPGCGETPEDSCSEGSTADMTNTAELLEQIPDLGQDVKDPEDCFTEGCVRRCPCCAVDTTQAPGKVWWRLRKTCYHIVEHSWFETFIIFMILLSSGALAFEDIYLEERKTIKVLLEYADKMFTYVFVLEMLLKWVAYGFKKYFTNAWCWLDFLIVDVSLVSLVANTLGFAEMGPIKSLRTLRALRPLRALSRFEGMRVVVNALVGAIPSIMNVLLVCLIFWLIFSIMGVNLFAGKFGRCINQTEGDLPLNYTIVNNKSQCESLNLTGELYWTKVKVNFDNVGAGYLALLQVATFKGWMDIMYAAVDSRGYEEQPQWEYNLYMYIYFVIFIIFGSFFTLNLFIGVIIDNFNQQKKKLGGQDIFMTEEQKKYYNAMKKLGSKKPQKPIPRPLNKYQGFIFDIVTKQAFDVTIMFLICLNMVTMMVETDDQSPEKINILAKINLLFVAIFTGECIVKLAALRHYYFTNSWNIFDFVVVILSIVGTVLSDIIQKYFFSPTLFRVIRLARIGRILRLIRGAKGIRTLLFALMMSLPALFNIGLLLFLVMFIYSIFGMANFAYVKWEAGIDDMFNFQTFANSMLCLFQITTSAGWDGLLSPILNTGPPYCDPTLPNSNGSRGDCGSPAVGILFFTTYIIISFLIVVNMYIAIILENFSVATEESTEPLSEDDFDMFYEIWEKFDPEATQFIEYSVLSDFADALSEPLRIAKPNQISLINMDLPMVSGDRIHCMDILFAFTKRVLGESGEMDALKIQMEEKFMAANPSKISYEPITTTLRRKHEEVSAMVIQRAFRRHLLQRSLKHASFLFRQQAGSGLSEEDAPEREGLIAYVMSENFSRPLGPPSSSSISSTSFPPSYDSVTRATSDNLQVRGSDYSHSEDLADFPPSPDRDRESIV

SMILES: COCCCNCCCc1ccc(-c2cnc(N)c(C(=O)Nc3cccnc3)n2)cc1 [Example 1, 3-Amino-6-(4-{3-[(3-methoxypropyl)amino]propyl}phenyl)-N-pyridin-3-ylpyrazine-2-carboxamide tri-hydrochloride]
- IC50: 21.2 µM
